Where two headings read alike, the source gives them in different places. Where a SMILES comes first, the peptide text is derived from it. Bridges are numbered along the chain shown (N, C = ends). [ ]: non-standard residue; d: D form. The star is where a group is joined. Octatrienoyl(2E,4E,6E) = C/C=C/C=C/C=C/C(=O)*; Pro(4R-Me) = C[C@H]1CN[C@H](C(=O)O)C1; NMeA = CN[C@@H](C)C(=O)O
Experiments:
[1] = tested on: T. gondii RH strain (RH-Tub-eYFP) tachyzoites; test: microbe, parasite or virus in culture; type: cell-based, Toxoplasma gondii; conditions: 72 h; for percent parasite growth at 2 µg/mL: Toxoplasma gondii
[2] = tested on: P. falciparum 3D7 parasites; test: P. falciparum growth inhibition assay, 1-cycle (72 h treatment), SYBR DNA staining (library screen at 2 μg/mL and dose-response); type: cell-based, Plasmodium falciparum; conditions: for activity at 2 µg/mL: Plasmodium falciparum, 3D7, 72 h
[3] = tested on: P. falciparum 3D7 parasites; test: P. falciparum growth inhibition assay, 2-cycle (120 h treatment), delayed-death screen and dose-response; type: cell-based, Plasmodium falciparum; conditions: for activity at 2 µg/mL: Plasmodium falciparum, 3D7, 120 h
[4] = library screen at 2 μg/mL, % growth, replicate 1
[5] = library screen at 2 μg/mL, % growth, replicate 2
[6] = library screen at 2 μg/mL, 72 h, % growth, replicate 1
[7] = library screen at 2 μg/mL, 72 h, % growth, replicate 2
[8] = library screen at 2 μg/mL, 120 h, % growth, replicate 1
[9] = library screen at 2 μg/mL, 120 h, % growth, replicate 2

COc1ccc(Br)c(C)c1C(=O)O[C@@H]1C[C@H](O[C@@H]2C(C)O[C@@H](O[C@H]3CCC[C@@H]4[C@@H]3C=C[C@H]3CCCC/C=C/[C@@H]5C=C(C(=O)O)[C@H](C)C[C@]56OC(=O)C(=C6O)OC(=O)[C@@]43C)C[C@H]2O)O[C@H](C)[C@H]1O (stereo partly drawn) [Bromothricin] was tested, and the Tg_72h_%Growth_Rep1 ([1]; T. gondii, screen at 2 μg/mL, replicate 1) was 83.92%, the Tg_72h_%Growth_Rep2 ([1]; T. gondii, screen at 2 μg/mL, replicate 2) was 93.14% and the Pf_72h_%Growth_Rep1 ([2]; P. falciparum, 72 h, screen at 2 μg/mL, replicate 1) was 90.13%. The Pf_72h_%Growth_Rep2 ([2]; P. falciparum, 72 h, screen at 2 μg/mL, replicate 2) was 84.25%, the Pf_120h_%Growth_Rep1 ([3]; P. falciparum, 120 h, screen at 2 μg/mL, replicate 1) was 159.83% and the Pf_120h_%Growth_Rep2 ([3]; P. falciparum, 120 h, screen at 2 μg/mL, replicate 2) was 97.51%.
In the case of CC(=O)N[C@H]1CCOC1=O [Acetyl-L-homoserine lactone], the Tg_72h_%Growth_Rep1 [1, 4] is reported as 88.39%, the Tg_72h_%Growth_Rep2 [1, 5] is reported as 103.34% and the Pf_72h_%Growth_Rep1 [2, 6] is reported as 5.19%. The Pf_72h_%Growth_Rep2 [2, 7] was 20.05%, the Pf_120h_%Growth_Rep1 [3, 8] was 2.96% and the Pf_120h_%Growth_Rep2 [3, 9] was 5.45%.
With C/C=C/C=C/C=C/C(=O)N[C@@H](Cc1ccccc1)C(=O)N[C@H]1COC(=O)[C@@H]2C[C@@H](C)CN2C(=O)[C@H](C)NC(=O)[C@H](C)N(C)C(=O)[C@@H]2CCCN2C1=O [A 54556A] ({Octatrienoyl(2E,4E,6E)}-FSP[NMeA]A[Pro(4R-Me)]; ester 2-C) the Tg_72h_%Growth_Rep1 [1, 4] was 149.51%, the Tg_72h_%Growth_Rep2 [1, 5] was 92.23% and the Pf_72h_%Growth_Rep1 [2, 6] was 73.00%. It also gave a Pf_72h_%Growth_Rep2 [2, 7] of 56.16%, a Pf_120h_%Growth_Rep1 [3, 8] of 58.56% and a Pf_120h_%Growth_Rep2 [3, 9] of 46.42%.
Cc1cc(O)c2c3c4c(cc(O)c13)C(C)(C)C(=O)c1c(O)cc(O)c(c1-4)C2=O [Resistomycin] gave a percent parasite growth at 2 µg/mL ([1]; T. gondii, parasite screen 2 μg/mL, % growth, replicate 1, read-out: Tg_72h_%Growth_Rep1) of 221%, a percent parasite growth at 2 µg/mL ([1]; T. gondii, parasite screen 2 μg/mL, % growth, replicate 2, read-out: Tg_72h_%Growth_Rep2) of 125% and an activity at 2 µg/mL ([2]; P. falciparum, 72 h, parasite screen 2 μg/mL, % growth, replicate 1, read-out: Pf_72h_%Growth_Rep1) of 82%. The activity at 2 µg/mL ([2]; P. falciparum, 72 h, parasite screen 2 μg/mL, % growth, replicate 2, read-out: Pf_72h_%Growth_Rep2) was 102%, the activity at 2 µg/mL ([3]; P. falciparum, 120 h, parasite screen 2 μg/mL, % growth, replicate 1, read-out: Pf_120h_%Growth_Rep1) was 78.2% and the activity at 2 µg/mL ([3]; P. falciparum, 120 h, parasite screen 2 μg/mL, % growth, replicate 2, read-out: Pf_120h_%Growth_Rep2) was 130%.
For CCC(C)C1OC2(CCC1C)CC1CC(CC=C(C)C(O)C(C)C=CC=C3COC4C(O)C(C)=CC(C(=O)O1)C34O)O2 (stereo not drawn) [BIA-I1151], the Tg_72h_%Growth_Rep1 ([1]; T. gondii RH, library screen at 2 μg/mL, % growth, replicate 1) was 121.58%, the Tg_72h_%Growth_Rep2 ([1]; T. gondii RH, library screen at 2 μg/mL, % growth, replicate 2) was 95.56% and the Pf_72h_%Growth_Rep1 ([2]; P. falciparum 3D7, 72 h, library screen at 2 μg/mL, % growth, replicate 1) was 82.86%. It also gave a Pf_72h_%Growth_Rep2 ([2]; P. falciparum 3D7, 72 h, library screen at 2 μg/mL, % growth, replicate 2) of 77.78%, a Pf_120h_%Growth_Rep1 ([3]; P. falciparum 3D7, 120 h, library screen at 2 μg/mL, % growth, replicate 1) of 87.69% and a Pf_120h_%Growth_Rep2 ([3]; P. falciparum 3D7, 120 h, library screen at 2 μg/mL, % growth, replicate 2) of 91.70%.
Molecule C[C@H]1NC(=O)[C@@H]2CCCCN2C(=O)CN(C)C(=O)CNC(=O)[C@@H]2CCCCN2C(=O)[C@H](NC(=O)c2nc3ccccc3cc2O)[C@@H](C)NC(=O)[C@@H]2CCCCN2C(=O)CN(C)C(=O)CNC(=O)[C@@H]2CCCCN2C(=O)[C@@H]1NC(=O)c1nc2ccccc2cc1O [Quinaldopeptin] has a Tg_72h_%Growth_Rep1 ([1]; T. gondii, parasite screen 2 μg/mL, % growth, replicate 1) of 3.09%, a Tg_72h_%Growth_Rep2 ([1]; T. gondii, parasite screen 2 μg/mL, % growth, replicate 2) of 0.65% and a Pf_72h_%Growth_Rep1 ([2]; P. falciparum, 72 h, parasite screen 2 μg/mL, % growth, replicate 1) of 9.69%. It also gave a Pf_72h_%Growth_Rep2 ([2]; P. falciparum, 72 h, parasite screen 2 μg/mL, % growth, replicate 2) of 1.67%, a Pf_120h_%Growth_Rep1 ([3]; P. falciparum, 120 h, parasite screen 2 μg/mL, % growth, replicate 1) of 19.16% and a Pf_120h_%Growth_Rep2 ([3]; P. falciparum, 120 h, parasite screen 2 μg/mL, % growth, replicate 2) of 8.74%.
Molecule CC[C@H]1OC(=O)[C@H](C)[C@@H](O[C@H]2C[C@@](C)(OC)[C@@H](O)[C@H](C)O2)[C@H](C)[C@@H](O[C@@H]2O[C@H](C)C[C@H](N(C)C)[C@H]2O)[C@](C)(O)C[C@@H](C)C(=O)[C@H](C)[C@@H](O)[C@]1(C)O [Erythromycin A] has a Tg_72h_%Growth_Rep1 [1, 4] of 29.44%, a Tg_72h_%Growth_Rep2 [1, 5] of 44.08% and a Pf_72h_%Growth_Rep1 [2, 6] of 79.99%. The Pf_72h_%Growth_Rep2 [2, 7] was 105.49%, the Pf_120h_%Growth_Rep1 [3, 8] was 83.81% and the Pf_120h_%Growth_Rep2 [3, 9] was 89.66%.
